Assay results reported in publication PMC4666608, “Metabolic Profiling of Chicken Embryos Exposed to Perfluorooctanoic Acid (PFOA) and Agonists to Peroxisome Proliferator-Activated Receptors” (PLoS ONE, 2015).
Marks after values point to notes of the source that are not given here.

Test system: chicken embryos
Experiment: Metabolic profiling of blood plasma (GC-MS, LC-MS, OPLS-DA)
Type: in vivo, Gallus gallus domesticus
Details: LC
Method: Controls were injected with 20 μL vehicle only (DMSO).
Plasma was collected and stored at -70°C.
Metabolites in allantoic fluid and blood plasma were analyzed using gas chromatography-mass spectrometry (GC-MS) and liquid chromatography-mass spectrometry (LC-MS) as described in S1 Methods. Prior to GC-MS and LC-MS analysis, allantoic fluid (100 μL) and blood plasma (50 μL) were extracted. To each sample, 900 μL (allantoic fluid) or 450 μL (blood plasma) of extraction buffer (90/10 v/v methanol:water) including all internal standards were added. Standards for GC-MS were proline, succinic acid, glutamic acid, salicylic acid, alpha-ketoglutarate, putrescine, myristic acid, hexadecanoic acid, cholesterol, and sucrose. Standards for LC-MS were Val-Tyr-Val, Leu-enkephalin, sulfadimethoxine and reserpine. Samples were homogenized by shaking in a bead mill at a frequency of 30 Hz for 3 minutes and proteins were precipitated at +4°C on ice. The samples were centrifuged at +4°C, 14000 rpm, for 10 min. Then, 200 μL supernatant was transferred to a GC microvial and 200 μL was transferred to an LC microvial, and solvents were evaporated. Samples from the four replicate experiments were analyzed using in chronological order and within each replicate experiment the run order of the individual samples was randomized.
Multivariate statistical analyses of metabolite profiles were performed using the software package SIMCA-P version 13.0 (Umetrics, Umeå, Sweden). Data was centered and scaled to variance 1 (UV scaling) prior to modelling. To reduce unintended systematic variation caused by sample processing and instrument drift, GC-MS and LC-MS metabolite amounts (expressed as the area under the chromatographic peak) were normalized by Orthogonal Partial Least Squares analysis (O2PLS) prior to multivariate data analysis. O2PLS finds common (predictive) and unique (orthogonal) variation in two data matrices. If applied to find the common variation between the data matrix containing the measured metabolite concentrations and a matrix containing only the internal standards, the only common (predictive) variation expected is due to the unintended systematic variation. By deleting the contribution of the predictive latent variables, that variation can be removed from the data. Models obtained after this normalization contain in general less latent variables, and this simplification helps when deciding on the number of latent variables to be used. Following normalization, GC-MS and LC-MS data were analyzed together. Initially, a global Principal Component Analysis (PCA) was performed to get an overview of groups and trends and to identify outliers. Projections to latent structures by means of Orthogonal Partial Least Squares Discriminant Analysis (OPLS-DA) was used to model the relationship between the X-matrix (metabolite concentrations) and the Y matrix (class, i.e. exposure group or sex), and to find x-variables that were related to class belonging. OPLS-DA is a supervised prediction and regression method that rotates the projection plane to find the maximum covariance between the data and the class assignment. All groups were first analyzed together in a 5-class OPLS-DA and then each exposure group was analyzed against the control group in a 2-class OPLS-DA. Sex differences were analyzed both using the whole data set and in each group separately using 2-class OPLS-DA, with females and males as the two classes. Only variables with 80% or more nonzero values were included in the statistical models. […] The validity of each model was also checked using CV-ANOVA (ANOVA of the cross-validated residuals). A significance level of p < 0.05 was used. For each model, R ^2 X, R ^2 Y and Q ^2 values were calculated, where R ^2 X is a measure of the fraction of x variation modeled in the extracted latent variables, R ^2 Y is a measure of the fraction of y variation modeled and Q ^2 is an estimate of the predictive ability of the model and is calculated by cross-validation. […]

O=C(O)C(F)(F)C(F)(F)C(F)(F)C(F)(F)C(F)(F)C(F)(F)C(F)(F)F [PFOA, perfluorooctanoic acid]
Mean concentration relative to control, feature 659.5483@11.4915495 (PFOA 50): 1.0
Mean concentration relative to control, feature 698.2598@1.3599721 (PFOA 50): 1.1
Mean concentration relative to control, feature 700.5514@10.765638 (PFOA 50): 1.1
Mean concentration relative to control, feature 755.5465@10.73882 (PFOA 50): 1
Mean concentration relative to control, feature 827.5078@8.831237 (PFOA 50): 1.2
Mean concentration relative to control, feature 875.4661@10.5661745 (PFOA 50): 1.0
Mean concentration relative to control, feature 1262.4865@1.947075 (PFOA 50): 1
Mean concentration relative to control, feature 1316.4163@1.9465046 (PFOA 50): 1.1*
Mean concentration relative to control, feature 1591.051@5.0189176 (PFOA 50): 1
Mean concentration relative to control, feature 1591.388@5.0202384 (PFOA 50): 1
Mean concentration relative to control, feature 1591.7203@5.018071 (PFOA 50): 1
Mean concentration relative to control, feature 118.0284@2.480333 (C4H6O4) (PFOA 250): 1
Mean concentration relative to control, feature 122.0486@0.675613 (PFOA 250): 1
Mean concentration relative to control, feature 126.0428@1.2278157 (Thymine) (PFOA 250): 1.1*
Mean concentration relative to control, feature 146.0362@0.7772238 (PFOA 250): 1
Mean concentration relative to control, feature 159.0686@1.1608156 (PFOA 250): 1.4
Mean concentration relative to control, feature 164.0449@0.7694838 (PFOA 250): 1
Mean concentration relative to control, feature 202.1024@5.0303197 (C8H14N2O4) (PFOA 250): 1.1
Mean concentration relative to control, feature 203.1162@0.5130696 (PFOA 250): 0.9
Mean concentration relative to control, feature 213.2458@7.4887733 (PFOA 250): 1.2**
Mean concentration relative to control, feature 215.047@1.6260729 (C5H14NO6P) (PFOA 250): 1.0
Mean concentration relative to control, feature 226.0721@1.9460537 (PFOA 250): 1
Mean concentration relative to control, feature 231.0174@1.6241412 (PFOA 250): 0.9
Mean concentration relative to control, feature 233.1265@2.535991 (PFOA 250): 1.1
Mean concentration relative to control, feature 250.1317@2.1334834 (PFOA 250): 0.9
Mean concentration relative to control, feature 260.0508@0.69984084 (PFOA 250): 0.7*
Mean concentration relative to control, feature 276.0173@1.6283482 (PFOA 250): 0.9
Mean concentration relative to control, feature 278.0939@1.3354088 (PFOA 250): 1
Mean concentration relative to control, feature 293.0903@1.5739433 (PFOA 250): 1
Mean concentration relative to control, feature 307.2147@7.5065937 (C18H29NO3) (PFOA 250): 2.0***
Mean concentration relative to control, feature 310.178@7.5343466 (PFOA 250): 1.2**
Mean concentration relative to control, feature 339.3861@9.528681 (PFOA 250): 1.4*
Mean concentration relative to control, feature 342.2883@7.526812 (PFOA 250): 0.7***
Mean concentration relative to control, feature 348.0675@1.5761927 (PFOA 250): 1
Mean concentration relative to control, feature 355.9454@0.68034226 (PFOA 250): 1
Mean concentration relative to control, feature 362.1467@0.8461036 (PFOA 250): 1.0
Mean concentration relative to control, feature 366.1431@1.4228548 (PFOA 250): 1
Mean concentration relative to control, feature 373.296@9.044806 (PFOA 250): 1.1
Mean concentration relative to control, feature 375.3108@8.995564 (PFOA 250): 1
Mean concentration relative to control, feature 389.2686@9.046645 (PFOA 250): 1
Mean concentration relative to control, feature 407.0999@1.585909 (PFOA 250): 1
Mean concentration relative to control, feature 412.135@2.4779084 (C17H24N4O6S) (PFOA 250): 1
Mean concentration relative to control, feature 444.3607@10.33052 (PFOA 250): 0.7*
Mean concentration relative to control, feature 471.9819@0.685074 (PFOA 250): 1.1
Mean concentration relative to control, feature 489.1508@8.562614 (PFOA 250): 0.8
Mean concentration relative to control, feature 509.1184@2.4798179 (PFOA 250): 1
Mean concentration relative to control, feature 525.2855@8.361063 (PFOA 250): 1
Mean concentration relative to control, feature 545.2492@8.463657 (PFOA 250): 1.1
Mean concentration relative to control, feature 558.4095@9.459733 (PFOA 250): 1
Mean concentration relative to control, feature 565.1902@0.7699907 (PFOA 250): 1.0
Mean concentration relative to control, feature 577.2747@9.25652 (PFOA 250): 1.1
Mean concentration relative to control, feature 581.1643@0.77029324 (PFOA 250): 1.1
Mean concentration relative to control, feature 634.2403@1.9467853 (PFOA 250): 1
Mean concentration relative to control, feature 644.1614@0.7647065 (PFOA 250): 1.1*
Mean concentration relative to control, feature 659.5483@11.4915495 (PFOA 250): 0.9
Mean concentration relative to control, feature 698.2598@1.3599721 (PFOA 250): 1.1
Mean concentration relative to control, feature 700.5514@10.765638 (PFOA 250): 1.1
Mean concentration relative to control, feature 755.5465@10.73882 (PFOA 250): 1.2
Mean concentration relative to control, feature 827.5078@8.831237 (PFOA 250): 1.2
Mean concentration relative to control, feature 875.4661@10.5661745 (PFOA 250): 1.0
Mean concentration relative to control, feature 1262.4865@1.947075 (PFOA 250): 1
Mean concentration relative to control, feature 1316.4163@1.9465046 (PFOA 250): 1.0
Mean concentration relative to control, feature 1591.051@5.0189176 (PFOA 250): 1
Mean concentration relative to control, feature 1591.388@5.0202384 (PFOA 250): 0.9
Mean concentration relative to control, feature 1591.7203@5.018071 (PFOA 250): 0.9
